Experimental data reported in US12350294B2, “Medium comprising serum replacement, IGF1, STAT3 activator and adrenal gland hormone without BFGF or rock inhibitor for producing corneal endothelial substitute cells from iPS cells and a method thereof” (KEIO UNIVERSITY, priority 2018, dated 2025).

How the values were obtained:
Format in all cases: cell-based, human
[1] = test system: iPS cells (FF-I01s04 line); experiment: Differentiation induction inhibitory activity of ROCK inhibitor (immunostaining); settings: medium containing fasudil 50 μM
Method: In the same manner as in Example 2 except that a medium containing fasudil (50 μM), which is a ROCK inhibitor, was used, the expression of ATP1A1 and ZO-1 was examined.

[2] = test system: iPS cells (FF-I01s04); experiment: Effect of TGF-beta 1 added to the induction medium, immunostaining after passage; settings: TGF-beta 1 1 ng/mL added to induction medium
Method: Using a medium (hereinafter referred to as CECSi cell induction (+T) medium) obtained by adding TGF-beta 1 (R&D System Inc., #240-GMP (1 ng/mL)) to the differentiation induction medium prepared in Example 1, the effect thereof was investigated.
Induction of iPS cells (FF-I01s04) was started using CECSi cell induction medium or CECSi cell induction (+T) medium, and the first passage was performed on day 11 and the second passage was performed on […] from the start of induction. At the time of passage, the cells were collected using Accutase (Nacalai Tesque #12679-54), and suspended and seeded at a density of 1.5×10^5 cells/cm^2 in a 35 mm dish or 100 mm dish coated with iMatrix 511 at a concentration of 3 μg/ml, without changing the previous medium.
At day 15 (after the first passage) and day 17 (after the second passage) from the start of induction, the expression state of N-cadherin and PITX2 was examined by immunostaining in the same manner as in Example 2.

[3] = test system: iPS cells (FF-I01s04 line); experiment: Differentiation induction inhibitory activity of bFGF (quantitative PCR and immunostaining)
Method: In the same manner as in Example 1 except that a medium containing bFGF (2 ng/mL) was used, the expression of each gene was quantified. As is clear from the results, when bFGF was added, an increase in ATPA1 or NR3C2 expression was not observed, and therefore an increase in ATP1A1 expression, which is important as the function of corneal endothelial cells, was not observed, either.
The expression of ATP1A1 and ZO-1 in the cells cultured in a medium containing bFGF was examined in the same manner as in Example 2.

[4] = immunostaining, medium containing bFGF
[5] = quantitative PCR, medium containing bFGF 2 ng/mL, day 12

O=S(=O)(c1cccc2cnccc12)N1CCCNCC1 [fasudil]
expression of ATP1A1 in the cellular membrane [1]: low
expression of ZO-1 and cell shape [1]: Elongated cells poorly expressing ZO-1 appeared

TGF-beta 1: isoform of transforming growth factor beta, protein added to the medium
endothelial morphology after passage ([2]; day 15 and day 17): could be maintained
expression of N-cadherin after passage ([2]; day 15 and day 17, after first and second passage): maintained

bFGF: basic fibroblast growth factor
expression of ATP1A1 [3, 4]: remarkably low
expression of ZO-1 and cell shape [3, 4]: Elongated cells poorly expressing ZO-1 appeared
increase in ATP1A1 expression [3, 5]: not observed
increase in ATPA1 or NR3C2 expression [3, 5]: not observed
